In ChEMBL document CHEMBL1255397, “Attenuation of cerebrospinal fluid inflammation by the nonbacteriolytic antibiotic daptomycin versus that by ceftriaxone in experimental pneumococcal meningitis” (Antimicrob Agents Chemother, 2010):

Columns and labels:
[1] = tested on: Rattus norvegicus; assay: Decrease in severity of cortical damage in Streptococcus pneumoniae serotype 3 clinical isolate infected in Wistar rat at 50 mg/kg, sc administered 18 hrs post infection measured after 2 to 6 hrs; assay type: functional; details: route subcutaneous
[2] = tested on: Rattus norvegicus; assay: Toxicity in Streptococcus pneumoniae serotype 3 clinical isolate infected in Wistar rat assessed as decrease in CSF CXCL1 concentration at 50 mg/kg, sc administered 18 hrs post infection measured after 2 to 6 hrs by microsphere-based multiplex assay; assay type: organism-based; set-up: dose 50 mg/kg, route subcutaneous; details: in vivo
[3] = tested on: Streptococcus pneumoniae; assay: Antimicrobial activity against Streptococcus pneumoniae serotype 3 clinical isolate infected in Wistar rat assessed as cerebrospinal fluid bacterial titer at 50 mg/kg, sc administered 18 hrs post infection measured after 4 hrs; assay type: functional; details: route subcutaneous
[4] = tested on: Rattus norvegicus; assay: Toxicity in Streptococcus pneumoniae serotype 3 clinical isolate infected in Wistar rat assessed as decrease in CSF TNF-alpha concentration at 50 mg/kg, sc administered 18 hrs post infection measured after 2 to 6 hrs by microsphere-based multiplex assay; assay type: organism-based; set-up: dose 50 mg/kg, route subcutaneous; details: in vivo
[5] = tested on: Rattus norvegicus; assay: Toxicity in against Streptococcus pneumoniae serotype 3 clinical isolate infected in Wistar rat assessed as increase in CSF IL-18 concentration at 100 mg/kg, sc administered 18 hrs post infection measured after 2 to 6 hrs by microsphere-based multiplex assay; assay type: organism-based; set-up: dose 100 mg/kg, route subcutaneous; details: in vivo
[6] = tested on: Rattus norvegicus; assay: Toxicity in Streptococcus pneumoniae serotype 3 clinical isolate infected in Wistar rat assessed as decrease in CSF IL-6 concentration at 50 mg/kg, sc administered 18 hrs post infection measured after 2 to 6 hrs by microsphere-based multiplex assay; assay type: organism-based; set-up: dose 50 mg/kg, route subcutaneous; details: in vivo
[7] = tested on: Rattus norvegicus; assay: Toxicity in Streptococcus pneumoniae serotype 3 clinical isolate infected in Wistar rat assessed as increase in CSF MIP-1alpha concentration at 100 mg/kg, sc administered 18 hrs post infection measured after 2 to 6 hrs by microsphere-based multiplex assay; assay type: organism-based; set-up: dose 100 mg/kg, route subcutaneous; details: in vivo
[8] = tested on: Rattus norvegicus; assay: Toxicity in Streptococcus pneumoniae serotype 3 clinical isolate infected in Wistar rat assessed as decrease in CSF IL-10 concentration at 50 mg/kg, sc administered 18 hrs post infection measured after 2 to 6 hrs by microsphere-based multiplex assay; assay type: organism-based; set-up: dose 50 mg/kg, route subcutaneous; details: in vivo
[9] = tested on: Rattus norvegicus; assay: Toxicity in Streptococcus pneumoniae serotype 3 clinical isolate infected in Wistar rat assessed as decrease in CSF MIP-1alpha concentration at 50 mg/kg, sc administered 18 hrs post infection measured after 2 to 6 hrs by microsphere-based multiplex assay; assay type: organism-based; set-up: dose 50 mg/kg, route subcutaneous; details: in vivo
[10] = tested on: Rattus norvegicus; assay: Toxicity in against Streptococcus pneumoniae serotype 3 clinical isolate infected in Wistar rat assessed as decrease in CSF IL-18 concentration at 50 mg/kg, sc administered 18 hrs post infection measured after 2 to 6 hrs by microsphere-based multiplex assay; assay type: organism-based; set-up: dose 50 mg/kg, route subcutaneous; details: in vivo
[11] = tested on: Rattus norvegicus; assay: Toxicity in Streptococcus pneumoniae serotype 3 clinical isolate infected in Wistar rat assessed as decrease in CSF MCP-1 concentration at 50 mg/kg, sc administered 18 hrs post infection measured after 2 to 6 hrs by microsphere-based multiplex assay; assay type: organism-based; set-up: dose 50 mg/kg, route subcutaneous; details: in vivo
[12] = tested on: Rattus norvegicus; assay: Toxicity in Streptococcus pneumoniae serotype 3 clinical isolate infected in Wistar rat assessed as decrease in CSF IL1-beta concentration at 50 mg/kg, sc administered 18 hrs post infection measured after 2 to 6 hrs by microsphere-based multiplex assay; assay type: organism-based; set-up: dose 50 mg/kg, route subcutaneous; details: in vivo
[13] = tested on: Rattus norvegicus; assay: Toxicity in Streptococcus pneumoniae serotype 3 clinical isolate infected in Wistar rat assessed as increase in CSF MCP-1 concentration at 100 mg/kg, sc administered 18 hrs post infection measured after 2 to 6 hrs by microsphere-based multiplex assay; assay type: organism-based; set-up: dose 100 mg/kg, route subcutaneous; details: in vivo
[14] = tested on: Rattus norvegicus; assay: Toxicity in Streptococcus pneumoniae serotype 3 clinical isolate infected in Wistar rat assessed as increase in CSF IL-18 concentration at 50 mg/kg, sc administered 18 hrs post infection measured after 2 to 6 hrs by microsphere-based multiplex assay; assay type: organism-based; set-up: dose 50 mg/kg, route subcutaneous; details: in vivo
[15] = tested on: Rattus norvegicus; assay: Decrease in severity of cortical damage in Streptococcus pneumoniae serotype 3 clinical isolate infected in Wistar rat at 100 mg/kg, sc administered 18 hrs post infection measured after 2 to 6 hrs; assay type: functional; details: route subcutaneous
[16] = tested on: Rattus norvegicus; assay: Toxicity in Streptococcus pneumoniae serotype 3 clinical isolate infected in Wistar rat assessed as decrease in CSF IL-10 concentration at 100 mg/kg, sc administered 18 hrs post infection measured after 2 to 6 hrs by microsphere-based multiplex assay; assay type: organism-based; set-up: dose 100 mg/kg, route subcutaneous; details: in vivo
[17] = tested on: Rattus norvegicus; assay: Toxicity in Streptococcus pneumoniae serotype 3 clinical isolate infected in Wistar rat assessed as decrease in CSF IL1-beta concentration at 100 mg/kg, sc administered 18 hrs post infection measured after 2 to 6 hrs by microsphere-based multiplex assay; assay type: organism-based; set-up: dose 100 mg/kg, route subcutaneous; details: in vivo

With `CCCCCCCCCC(=O)N[C@@H](Cc1c[nH]c2ccccc12)C(=O)N[C@H](CC(N)=O)C(=O)N[C@@H](CC(=O)O)C(=O)N[C@@H]1C(=O)NCC(=O)N[C@@H](CCCN)C(=O)N[C@@H](CC(=O)O)C(=O)N[C@H](C)C(=O)N[C@@H](CC(=O)O)C(=O)NCC(=O)N[C@H](CO)C(=O)N[C@@H]([C@H](C)CC(=O)O)C(=O)N[C@@H](CC(=O)c2ccccc2N)C(=O)O[C@@H]1C` the inhibition in vivo at 50 mg/kg [1] was 0.13%, the Activity [2] was “Non-toxic” and the log10CFU/ml [3] was less than 1000 CFU/ml. For the same molecule, the Activity [4] was “Non-toxic”, the Activity [5] was “Toxic” and the Activity [6] was “Non-toxic”.

In the case of `CO/N=C(\C(=O)N[C@@H]1C(=O)N2C(C(=O)O)=C(CSc3nc(=O)c(=O)[nH]n3C)CS[C@H]12)c1csc(N)n1` [CEFTRIAXONE], the Activity [7] is reported as “Toxic”, the Activity [8] is reported as “Non-toxic” and the Activity [9] is reported as “Non-toxic”. For the same molecule, the Activity [10] was “Non-toxic”, the Activity [11] was “Non-toxic” and the Activity [12] was “Non-toxic”. The Activity [13] was “Toxic”, the Activity [14] was “Toxic” and the inhibition in vivo at 100 mg/kg [15] was 4.7%. The Activity [16] was “Toxic” and the Activity [17] was “Toxic”.
